# Test results: PubChem BioAssay AID1159563 (GlaxoSmithKline (GSK), 2015)
# Active and inactive are the calls of the source. How the calls were made is not given here.
# Test system: HepG2 cytotoxicity
# Assay: HepG2 cell cytotoxicity, cytotoxicity control (AID 1159563)
row,Structure (SMILES),IC50
1,COc1ccc(C)cc1-c1csc(NC(=O)C(C)n2ccnc2)n1 (stereo unspecified),> 100 µM (inactive)
2,CS(=O)(=O)c1cccc(-c2cnc(N)c3c(-c4ccc(CO)cc4)csc23)c1,> 100 µM (inactive)
3,COc1ccc(Nc2nc(-c3ccccn3)cs2)c(OC)c1,> 100 µM (inactive)
4,Clc1ccc(Sc2cnccc2N2CCOCC2)cc1,> 100 µM (inactive)
5,Cc1nc2c(-c3nc(-c4ccc(N)cc4)n[nH]3)cccn2c1C,16 µM
6,Cc1[nH]nc(C(F)(F)F)c1NC(=O)CCn1cc(Cl)c([N+](=O)[O-])n1,> 100 µM (inactive)
7,Cc1cc(C)n(-c2nc(NC(C)C)nc(NC(C)(C)C)n2)n1,> 100 µM (inactive)
8,COc1ccc2ncc(=O)n(CCN3CC[C@H](NCc4ncc(Cl)c5[nH]ncc45)[C@H](O)C3)c2n1,> 100 µM (inactive)
9,COc1ccc(NC(=O)c2ccc(NC(=O)CN(c3ccccc3C)S(C)(=O)=O)cc2)cc1,40 µM
10,COc1ccccc1-n1c(SCC(=O)Nc2ccc3c(c2)OCO3)nc2c(c1=O)SCC2,> 100 µM (inactive)
11,CC(=O)Nc1ccc(Nc2nccc(-c3cnn4ncccc34)n2)cc1C(F)(F)F,> 100 µM (inactive)
12,O=C(NCc1ccc(Cl)cc1)C1CN(C(=O)c2ccc(F)cc2)CCS1 (stereo unspecified),> 100 µM (inactive)
13,CCN(CC)S(=O)(=O)c1ccc(C(=O)Nc2cc(C)nn2-c2nc(C)c(C)c(=O)[nH]2)cc1,> 100 µM (inactive)
14,COc1ccc(S(=O)(=O)NCc2ccc(-c3ccc(CN(C)CCO)cc3)cc2)cc1,50 µM
15,O=C(c1ccc(Cl)cc1)c1ccc(OC(=O)N2CCOCC2)cc1,> 100 µM (inactive)
16,Cc1cc(N(C)C)nc2ccc(Cc3cnc(N)nc3N)cc12,32 µM
17,CCn1c(NC(=O)Cc2ccc(F)cc2)nc2ccccc21,> 100 µM (inactive)
18,Cc1ccc2sc(NC(=O)Cn3cnc([N+](=O)[O-])n3)nc2c1,> 100 µM (inactive)
19,CN(Cc1nnnn1C1CCN(Cc2ccc(-n3ccnc3)cc2)CC1)c1ccc(F)cc1F,> 100 µM (inactive)
20,COc1ccccc1C1CC(c2ccc(NS(C)(=O)=O)cc2)=NN1C(=O)c1cccs1 (stereo unspecified),> 100 µM (inactive)
21,COCc1cc(Nc2ccccc2)nc(-c2ccccn2)n1,100 µM
22,C[C@@H](Oc1cc(-n2cnc3ccc(O[C@H]4CCNC4)cc32)sc1C(N)=O)c1ccccc1Cl,16 µM
23,COc1ccc(-c2csc(NC(=O)c3ccc([N+](=O)[O-])s3)n2)cc1OC,10 µM
24,CC(C)(C)C(=O)NCCc1csc(-c2ccc(F)cc2)n1,> 100 µM (inactive)

row,Structure (SMILES),IC50
1,COc1ccc(CNc2nsc3ccccc23)cc1OC,50 µM
2,CN(Cc1nc2c(C(=O)N3CCN(Cc4ccccc4)CC3)cccc2[nH]1)C1CCCc2cccnc21 (stereo unspecified),13 µM
3,Cc1[nH]c2ccccc2c(=O)c1Cc1c(C)[nH]c2ccccc2c1=O,> 100 µM (inactive)
4,COc1ccc2ncc(Cl)c(CCN3CC[C@H](NCc4cc5c(cn4)OCS5)[C@@H](O)C3)c2n1,25 µM
5,O=C(N1CCc2ccccc2CC1)C1(C(=O)N2CCC(n3c(=O)[nH]c4ncccc43)CC2)CC1,> 100 µM (inactive)
6,Cc1nc(N2CC(C)OC(C)C2)sc1C(=O)Nc1ccc2c(c1)OCO2 (stereo unspecified),> 100 µM (inactive)
7,CNC(=O)C1Cc2ccccc2N1C(=O)Cc1ccc(OC)cc1 (stereo unspecified),> 100 µM (inactive)
8,Cc1cc(NC(=O)CC2CCCCC2)n(-c2nc3c(c(=O)[nH]2)CCC3)n1,> 100 µM (inactive)
9,Cc1c(C#N)c([N+](=O)[O-])nn1Cc1cccc(Cl)c1Cl,79 µM
10,Cc1ccc2onc(Nc3ccnc(Nc4cccc(S(C)(=O)=O)c4)n3)c2c1,50 µM
11,CNC(=O)C1Cc2ccccc2N1C(=O)Cc1ccccc1 (stereo unspecified),> 100 µM (inactive)
12,O=C(Cn1cnc2c(-c3ccccc3)csc2c1=O)N1CCCCC1,> 100 µM (inactive)
13,O=C(NCCc1cccnc1)c1ccc(-c2ccccc2F)o1,> 100 µM (inactive)
14,O=C(Nc1ccccc1)Nc1nc(-c2ccccn2)cs1,25 µM
15,O=C(C1CCCCC1)N1CCN(c2nnc(-c3ccccc3)c3ccccc23)CC1,> 100 µM (inactive)
16,O=C(Nc1nc2ccccc2[nH]1)c1c(O)c2cccc3c2n(c1=O)CC3,10 µM
17,Cc1cnc(Nc2cc(Cc3ccccc3)nc(NC3CCC(O)CC3)n2)s1 (stereo unspecified),25 µM
18,NC(N)=Nc1nc(-c2ccc(NC(N)=NCCN3CCCC3)cc2)cs1,> 100 µM (inactive)
19,CN(CCOc1ccc(Cl)cc1)Cc1nc(N)nc(N(C)C)n1,> 100 µM (inactive)
20,Cc1cc(Nc2ccc(C#N)c(Cl)c2C)n[nH]1,> 100 µM (inactive)
21,COc1ccc(C(=O)[C@H]2C[C@@H]2CN(Cc2ccccn2)Cc2ccccn2)cc1,> 100 µM (inactive)
22,CC(c1cc(Cl)cc(Cl)c1)N(C)c1ncc2c(N)nc(N)nc2n1 (stereo unspecified),63 µM
23,CCCCCNC(=O)c1c[nH]c2ccc(S(=O)(=O)N(C)c3ccc(OCC)cc3)cc2c1=O,> 100 µM (inactive)
24,CCOc1ccc(OCC(=O)N2c3ccccc3CC2C(=O)NC)cc1 (stereo unspecified),> 100 µM (inactive)

row,Structure (SMILES),IC50
1,COc1ccc(OC)c(NC(=O)c2ccc([N+](=O)[O-])o2)c1,20 µM
2,COc1ncc(-c2ccc3nccc(-c4ccncc4)c3c2)cc1NS(=O)(=O)C1CC1,> 100 µM (inactive)
3,CN(C)S(=O)(=O)c1ccc(Cl)c(C(=O)Nc2nc(-c3ccccn3)cs2)c1,> 100 µM (inactive)
4,COc1ccc([N+](=O)[O-])cc1NC(=O)c1cc(Cl)ccc1O,10 µM
5,CCc1ccc2nc(NC(=O)c3cc(N4CCOCC4)ccn3)sc2c1,> 100 µM (inactive)
6,CC(C)(C)CC(=O)NCCc1csc(-c2ccc(F)cc2)n1,> 100 µM (inactive)
7,O=C(NCC(c1cccnc1)N1CCc2ccccc2C1)C(=O)Nc1cccc(Cl)c1 (stereo unspecified),> 100 µM (inactive)
8,Cc1ccccc1NS(=O)(=O)c1ccc2[nH]cc(C(=O)NC3CCCCC3)c(=O)c2c1,32 µM
9,Cc1occc1C(=O)Nc1ccccc1C(=O)Nc1nccs1,> 100 µM (inactive)
10,N#Cc1cc([N+](=O)[O-])ccc1NC1CCCCCC1,> 100 µM (inactive)
11,COc1ccc(Cl)cc1CC(=O)Nc1n[nH]c(-c2ccccn2)n1,32 µM
12,CC(=O)NC1(c2ccccc2)CCN(CC(=O)Nc2ccccc2-c2ccccc2)CC1,> 100 µM (inactive)
13,NC(=O)c1ccsc1NC(=O)c1ccc([N+](=O)[O-])s1,> 100 µM (inactive)
14,O=c1cc(NCCCNC2CCOc3c(I)cc(Cl)cc32)[nH]c2ccccc12 (stereo unspecified),63 µM
15,COCc1cnc2c(c1SCc1c(F)cccc1Cl)c(=O)n(C)c(=O)n2C,> 100 µM (inactive)
16,Cc1[nH]n2c(=O)c3c(nc2c1-c1ccc(F)cc1)CCCC3,> 100 µM (inactive)
17,Cc1ccc(Nc2nc(C3CCCN3Cc3ccn[nH]3)cs2)nc1 (stereo unspecified),32 µM
18,COc1ccc(S(=O)(=O)Nc2ccccc2OC)cc1NC(=O)CCCc1c[nH]c2ccccc12,> 100 µM (inactive)
19,COc1ccc(NS(=O)(=O)c2cc(-c3cc(C)[nH]n3)ccc2C)cc1OC,> 100 µM (inactive)
20,COc1ccc(CN2CCCCC2c2nc(-c3cccnc3)no2)cc1 (stereo unspecified),> 100 µM (inactive)
21,CC(C)c1cc(C(=O)N2CCCC(c3cc4ncccc4[nH]3)C2)on1 (stereo unspecified),> 100 µM (inactive)
22,CN(Cc1cccnc1)Cc1ccc(N2CCN(C(=O)C3(c4ccc(Cl)cc4)CC3)CC2)nc1,> 100 µM (inactive)
23,O=C1NCCn2ccc(Nc3nc(NC4CCC(O)CC4)ncc3Cl)c21 (stereo unspecified),> 100 µM (inactive)
